Results as given in PMC6253998, “Ring-substituted 4-Hydroxy-1H-quinolin-2-ones: Preparation and Biological Activity” (Molecules, 2009).
pIC50: −log10 of the molar value. ≈ marks a conversion by molar mass, not a printed value. Where two headings read alike, the source gives them in different places.

What was measured:
[1] = tested on: Trichosporon beigelii 1188; assay: In vitro antifungal broth microdilution test; type: cell-based; conditions: Trichosporon beigelii, 1188, RPMI 1640, pH 7.0, 35 °C, read-out: MIC/IC80 TB
Procedure: (§1) The broth microdilution test was used for the assessment of in vitro antifungal activity of the synthesized compounds against Candida albicans ATCC 44859 (CA), Candida tropicalis 156 (CT), Candida krusei ATCC 6258 (CK), Candida glabrata 20/I (CG), Trichosporon beigelii 1188 (TB), Aspergillus fumigatus 231 (AF), Absidia corymbifera 272 (AC), and Trichophyton mentagrophytes 445 (TM). Fluconazole (FLU) was used as the standard of a clinically used antimycotic drug. The procedure was performed with twofold dilution of the compounds in RPMI 1640 (Sevapharma a.s., Prague, Czech Republic) buffered to pH 7.0 with 0.165 mol of 3-morpholino-propane-1-sulfonic acid (MOPS, Sigma, Germany). The final concentrations of the compounds ranged from 500 to 0.975 μmol/l. Drug–free controls were included. The MIC was defined as an 80% or greater (IC80) reduction of growth in comparison with the control. The values of MICs were determined after 24 and 48 h of static incubation at 35 °C. For T. mentagrophytes, the final MICs were determined after 72 and 120 h of incubation.

Absidia corymbifera 272 = assay: In vitro antifungal broth microdilution test; type: cell-based; conditions: Lichtheimia corymbifera, 272, RPMI 1640, pH 7.0, 35 °C, read-out: MIC/IC80 AC
Procedure: (§2) Fluconazole (FLU) was used as the standard of a clinically used antimycotic drug. The procedure was performed with twofold dilution of the compounds in […]., Prague, Czech Republic) buffered to pH 7.0 with 0.165 mol of 3-morpholino-propane-1-sulfonic acid (MOPS, Sigma, Germany). […] Drug-free controls were included. The MIC was defined as an 80% or greater (IC80) reduction of growth in comparison with the control.

Candida krusei ATCC 6258 = assay: In vitro antifungal broth microdilution test; type: cell-based; conditions: Pichia kudriavzevii, ATCC6258, RPMI 1640, pH 7.0, 35 °C, read-out: MIC/IC80 CK
Procedure: as §2

[2] = tested on: Trichophyton mentagrophytes 445; assay: In vitro antifungal broth microdilution test; type: cell-based; conditions: for MIC: Trichophyton mentagrophytes, 445, RPMI 1640, pH 7.0, 35 °C, read-out: MIC/IC80 TM
Procedure: as §2

Candida glabrata 20/I = assay: In vitro antifungal broth microdilution test; type: cell-based; conditions: Nakaseomyces glabratus, 20/I, RPMI 1640, pH 7.0, 35 °C, read-out: MIC/IC80 CG
Procedure: as §2

Candida tropicalis 156 = assay: In vitro antifungal broth microdilution test; type: cell-based; conditions: Candida tropicalis, 156, RPMI 1640, pH 7.0, 35 °C, read-out: MIC/IC80 CT
Procedure: as §2

[3] = tested on: Candida albicans ATCC 44859; assay: In vitro antifungal broth microdilution test; type: cell-based; conditions: Candida albicans, ATCC44859, RPMI 1640, pH 7.0, 35 °C, read-out: MIC/IC80 CA
Procedure: as §2

[4] = tested on: Aspergillus fumigatus 231; assay: In vitro antifungal broth microdilution test; type: cell-based; conditions: Aspergillus fumigatus, 231, RPMI 1640, pH 7.0, 35 °C, read-out: MIC/IC80 AF
Procedure: as §2

[5] = Lipophilicity HPLC determination (capacity factor k / log k); type: physicochemical; conditions: RP-HPLC, C18 column, MeOH 55.0% / H2O 45.0%, isocratic
Procedure: Hydrophobicities (log P/Clog P values) of the compounds 1-12 were calculated using two commercially available programs and also measured by means of the reversed phase high performance liquid chromatography (RP-HPLC) method for lipophilicity measurement. The procedure was performed under isocratic conditions with methanol as an organic modifier in the mobile phase using an end-capped non-polar C18 stationary RP column. The capacity factors k were determined and subsequent log k values were calculated.
The HPLC separation module Waters Alliance 2695 XE and Waters Photodiode Array Detector 2996 (Waters Corp., Milford, MA, U.S.A.) were used. A Symmetry® C18 5 μm, 4.6 × 250 mm, Part No. WAT054275, (Waters Corp., Milford, MA, U.S.A.) chromatographic column was used. The HPLC separation process was monitored by Millennium32® Chromatography Manager Software, Waters 2004 (Waters Corp., Milford, MA, U.S.A.). The mixture of MeOH p.a. (55.0%) and H2O-HPLC – Mili-Q Grade (45.0%) was used as a mobile phase. The total flow of the column was 0.9 mL/min, injection 30 μL, column temperature 30 °C and sample temperature 10 °C. The detection wavelength 210 nm was chosen. The KI methanolic solution was used for the dead time (TD) determination. Retention times (tR) were measured in minutes. The capacity factors k were calculated using the Millennium32® Chromatography Manager Software according to formula k = (tR - tD) / tD, where tR is the retention time of the solute, whereas tD denotes the dead time obtained via an unretained analyte. Log k, calculated from the capacity factor k, is used as the lipophilicity index converted to log P scale.

spinach chloroplasts = assay: Inhibition of oxygen evolution rate (OER) / photosynthetic electron transport in spinach chloroplasts; type: biochemical, Spinacia oleracea L.; conditions: for pIC50: DCPIP photoreduction, pH 7.2
Procedure: Chloroplasts were prepared from spinach (Spinacia oleracea L.) according to Masarovicova and Kralova. The inhibition of photosynthetic electron transport (PET) in spinach chloroplasts was determined spectrophotometrically (Genesys 6, Thermo Scientific, U.S.A.) using an artificial electron acceptor 2,6-dichlorophenol-indophenol (DCPIP) according to Kralova et al. and the rate of photosynthetic electron transport was monitored as a photoreduction of DCPIP. The measurements were carried out in phosphate buffer (0.02 mol/L, pH 7.2) containing sucrose (0.4 mol/L), MgCl2 (0.005 mol/L) and NaCl (0.015 mol/L). The chlorophyll content was 30 mg/L in these experiments and the samples were irradiated (~100 W/m^2) from 10 cm distance with a halogen lamp (250 W) using a 4 cm water filter to prevent warming of the samples (suspension temperature 22 °C). The studied compounds were dissolved in DMSO due to their limited water solubility. […] The inhibitory efficiency of the studied compounds was expressed by IC50 values, i.e. by molar concentration of the compounds causing 50% decrease in the oxygen evolution rate relative to the untreated control.

eight fungal strains = assay: In vitro antifungal screening, overall verdict; type: cell-based; conditions: especially against Candida albicans ATCC 44859
Procedure: as §1

Structure (SMILES) | MIC ([1]; 24h) [µM] | MIC ([1]; 48h) [µM] | MIC (Absidia corymbifera 272; 24h) [µM] | MIC (Absidia corymbifera 272; 48h) [µM] | MIC (Candida krusei ATCC 6258; 24h) [µM] | MIC (Candida krusei ATCC 6258; 48h) [µM] | MIC ([2]; 72h) [µM] | MIC ([2]; 120h) [µM] | MIC (Candida glabrata 20/I; 24h) [µM] | MIC (Candida glabrata 20/I; 48h) [µM] | MIC (Candida tropicalis 156; 24h) [µM] | MIC (Candida tropicalis 156; 48h) [µM] | MIC ([3]; 24h) [µM] | MIC ([3]; 48h) [µM] | MIC ([4]; 24h) [µM] | MIC ([4]; 48h) [µM] | log k [5] | pIC50 (spinach chloroplasts) | also measured
O=C(O)c1ccc(NC(=O)c2c(O)c3cc(C(=O)O)ccc3[nH]c2=O)cc1 [Compound 11, 3-(4-Carboxyphenylcarbamoyl)-4-hydroxy-2-oxo-1,2-dihydroquinoline-6-carboxylic acid] | > 500 | > 500 | > 500 | > 500 | > 500 | > 500 | > 500 | > 500 | > 500 | > 500 | > 500 | > 500 | > 500 | > 500 | > 500 | > 500 | 0.0081 | 3.42 | 
O=C(O)c1ccc2[nH]c(=O)c(/N=N/c3cc(Cl)c([N+](=O)[O-])cc3Cl)c(O)c2c1 [Compound 8, (E)-3-[(2,5-Dichloro-4-nitrophenyl)diazenyl]-4-hydroxy-2-oxo-1,2-dihydroquinoline-6-carboxylic acid] | 250 (≈ 106 µg/mL) | > 250 | 62.5 (≈ 26.4 µg/mL) | 250 (≈ 106 µg/mL) | 250 (≈ 106 µg/mL) | 250 (≈ 106 µg/mL) | 62.5 (≈ 26.4 µg/mL) | 125 (≈ 52.9 µg/mL) | 250 (≈ 106 µg/mL) | > 250 | 250 (≈ 106 µg/mL) | > 250 | 31.2 (≈ 13.2 µg/mL) | 125 (≈ 52.9 µg/mL) | 125 (≈ 52.9 µg/mL) | 250 (≈ 106 µg/mL) | 0.6394 | 3.90 | antifungal activity against Trichophyton mentagrophytes 445 (in words) [2]: medium activity; in vitro antifungal activity (in words) (eight fungal strains): only a moderate activity
O=c1[nH]c2ccccc2c(O)c1[N+](=O)[O-] [Compound 5, 4-Hydroxy-3-nitroquinolin-2(1H)-one] | > 500 | > 500 | > 500 | > 500 | > 500 | > 500 | > 500 | > 500 | > 500 | > 500 | > 500 | > 500 | > 500 | > 500 | > 500 | > 500 | 0.4052 | 3.29 | OER inhibition effectiveness relative to compound 1 (spinach chloroplasts): approximately twice as effective as compound 1
O=C(O)c1c(O)c2ccccc2[nH]c1=O [Compound 10, 4-Hydroxy-2-oxo-1,2-dihydroquinoline-3-carboxylic acid] | > 500 | > 500 | > 500 | > 500 | > 500 | > 500 | > 500 | > 500 | > 500 | > 500 | > 500 | > 500 | > 500 | > 500 | > 500 | > 500 | 0.0118 | 3.25 | 
